Several values for one entry are separate records, joined by “and”; a condition that tells them apart may be missing. Equal values may be shown once.
Key:
5-HT7 receptor = target: T1, 5-HT7 receptor (Homo sapiens, UniProt P34969); experiment: Radioligand binding assay, 5-HT7 receptor; details: for activity with respect to 5-HT7R (in words): SAR discussion of radioligand data; for Ki: mean ± SD, triplicate at 7 concentrations, Cheng-Prusoff, read-out: Affinity Ki 5-HT7R
T1 construct: host or cells: cell membranes from cultured cells
Description: (§1) The affinity of the studied compounds to 5-HT1A, 5-HT2A, 5-HT6, 5-HT7, and D2 receptors was evaluated by a radioligand assay, as reported previously (Table 1). Each compound was tested in triplicate at seven concentrations (from 0.1 nM to 100 µM). Inhibition constants (Ki) were calculated from the Cheng–Prusoff equation [23].
(§2) The cell culture, cell membranes, and radioligand binding assays were performed in accordance with standard protocols.

5-HT2A receptor = target: T2, 5-HT2A receptor (Homo sapiens, UniProt P28223); experiment: Radioligand binding assay, 5-HT2A receptor; details: mean ± SD, triplicate at 7 concentrations, Cheng-Prusoff; read-out: Affinity Ki 5-HT2AR
T2 construct: host or cells: cell membranes from cultured cells
Description: as §1, §2

5-HT1A receptor = target: T3, 5-HT1A receptor (Homo sapiens, UniProt P08908); experiment: Radioligand binding assay, 5-HT1A receptor; details: mean ± SD, triplicate at 7 concentrations, Cheng-Prusoff; read-out: Affinity Ki 5-HT1AR
T3 construct: host or cells: cell membranes from cultured cells
T3 sequence (P08908 1-422): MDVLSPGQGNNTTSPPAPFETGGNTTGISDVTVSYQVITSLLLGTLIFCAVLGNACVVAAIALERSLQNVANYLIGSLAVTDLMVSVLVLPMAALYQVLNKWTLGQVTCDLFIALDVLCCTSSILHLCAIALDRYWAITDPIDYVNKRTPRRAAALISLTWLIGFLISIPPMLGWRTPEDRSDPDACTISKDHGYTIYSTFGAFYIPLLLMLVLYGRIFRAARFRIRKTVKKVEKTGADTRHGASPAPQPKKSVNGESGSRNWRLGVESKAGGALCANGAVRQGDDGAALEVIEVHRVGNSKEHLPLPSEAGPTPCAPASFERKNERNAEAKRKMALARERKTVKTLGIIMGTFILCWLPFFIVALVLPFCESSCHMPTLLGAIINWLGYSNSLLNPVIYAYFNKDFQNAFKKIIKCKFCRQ
Description: as §1, §2

5-HT6 receptor = target: T4, 5-HT6 receptor (Homo sapiens, UniProt P50406); experiment: Radioligand binding assay, 5-HT6 receptor; details: mean ± SD, triplicate at 7 concentrations, Cheng-Prusoff; read-out: Affinity Ki 5-HT6R
T4 construct: host or cells: cell membranes from cultured cells
Description: as §1, §2

D2 receptor = target: T5, D2 receptor (Homo sapiens, UniProt P14416); experiment: Radioligand binding assay, D2 receptor; details: mean ± SD, triplicate at 7 concentrations, Cheng-Prusoff; read-out: Affinity Ki D2R
T5 construct: host or cells: cell membranes from cultured cells
Description: as §1, §2

T2 sequence (P28223 whole entry): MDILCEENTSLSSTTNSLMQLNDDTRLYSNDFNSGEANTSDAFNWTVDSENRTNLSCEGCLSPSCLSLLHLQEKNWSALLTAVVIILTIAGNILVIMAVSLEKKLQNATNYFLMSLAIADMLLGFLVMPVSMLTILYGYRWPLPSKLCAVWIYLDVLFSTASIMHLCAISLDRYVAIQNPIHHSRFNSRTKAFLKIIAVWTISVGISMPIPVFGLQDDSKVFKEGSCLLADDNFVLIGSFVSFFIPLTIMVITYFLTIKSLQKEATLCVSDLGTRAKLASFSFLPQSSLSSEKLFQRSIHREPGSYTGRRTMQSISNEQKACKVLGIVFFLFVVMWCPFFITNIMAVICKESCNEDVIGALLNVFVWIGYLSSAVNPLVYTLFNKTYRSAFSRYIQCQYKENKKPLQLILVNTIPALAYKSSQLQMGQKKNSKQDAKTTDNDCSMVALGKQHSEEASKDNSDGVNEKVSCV
T4 sequence (P50406 whole entry): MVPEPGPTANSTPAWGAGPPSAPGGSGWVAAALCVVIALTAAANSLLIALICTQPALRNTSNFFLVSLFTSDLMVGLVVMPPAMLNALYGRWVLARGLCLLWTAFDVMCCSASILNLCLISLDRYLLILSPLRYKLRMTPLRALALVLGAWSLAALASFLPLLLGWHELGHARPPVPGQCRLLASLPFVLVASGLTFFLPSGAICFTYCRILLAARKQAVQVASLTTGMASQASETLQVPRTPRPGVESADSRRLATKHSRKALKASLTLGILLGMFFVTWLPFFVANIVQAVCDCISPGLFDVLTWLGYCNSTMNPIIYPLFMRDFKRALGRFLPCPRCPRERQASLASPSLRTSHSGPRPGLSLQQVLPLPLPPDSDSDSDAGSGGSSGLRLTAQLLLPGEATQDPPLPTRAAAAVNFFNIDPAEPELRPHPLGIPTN
T1 sequence (P34969 1-432 limits assumed): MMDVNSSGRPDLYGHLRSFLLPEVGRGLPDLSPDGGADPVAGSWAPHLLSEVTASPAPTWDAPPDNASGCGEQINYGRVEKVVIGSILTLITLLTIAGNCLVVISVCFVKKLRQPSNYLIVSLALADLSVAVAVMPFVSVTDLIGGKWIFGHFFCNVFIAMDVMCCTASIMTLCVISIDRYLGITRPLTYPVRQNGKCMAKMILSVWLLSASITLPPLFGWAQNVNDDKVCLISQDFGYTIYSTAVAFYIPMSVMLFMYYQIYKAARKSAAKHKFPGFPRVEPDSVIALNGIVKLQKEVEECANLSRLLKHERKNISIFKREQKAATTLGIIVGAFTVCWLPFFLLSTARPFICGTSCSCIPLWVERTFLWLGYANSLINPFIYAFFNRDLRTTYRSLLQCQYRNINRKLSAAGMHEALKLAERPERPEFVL
T5 sequence (P14416 whole entry): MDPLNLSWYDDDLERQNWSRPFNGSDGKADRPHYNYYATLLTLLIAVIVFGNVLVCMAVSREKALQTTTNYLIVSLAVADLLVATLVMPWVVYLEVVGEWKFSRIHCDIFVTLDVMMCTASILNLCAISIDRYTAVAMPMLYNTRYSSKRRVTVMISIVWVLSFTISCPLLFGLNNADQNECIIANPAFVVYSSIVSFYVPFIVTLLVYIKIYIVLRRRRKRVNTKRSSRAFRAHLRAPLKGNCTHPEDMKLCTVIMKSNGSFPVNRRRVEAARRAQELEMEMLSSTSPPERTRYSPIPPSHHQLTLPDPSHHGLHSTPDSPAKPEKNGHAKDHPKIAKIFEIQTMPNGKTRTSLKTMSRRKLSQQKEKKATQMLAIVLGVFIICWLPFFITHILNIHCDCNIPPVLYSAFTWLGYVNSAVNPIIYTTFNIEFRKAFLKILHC

SMILES	melting point	Ki (5-HT7 receptor)	Ki (5-HT6 receptor)	activity with respect to 5-HT7R (in words) (5-HT7 receptor)	Ki (5-HT2A receptor)	Ki (5-HT1A receptor)	Ki (D2 receptor)
Cl.N#Cc1ccc2[nH]cc(CCNc3nc(N)nc(NCCc4ccccc4)n3)c2c1 [Compound 1, 3-(2-((4-Amino-6-(Phenethylamino)-1,3,5-Triazin-2-yl)Amino)Ethyl)-1H-Indole-5-Carbonitrile Hydrochloride]	95 to 98 °C	2880 ± 351 nM		activity toward the 5-HT7 receptor being lost	927 ± 927 nM	13000 nM	
Cl.Nc1nc(NCCc2ccccc2)nc(NCCc2c[nH]c3ccc(Br)cc23)n1 [Compound 3, N^2-(2-(5-Bromo-1H-Indol-3-yl)ethyl)-N^4-Phenethyl-1,3,5-Triazine-2,4,6-Triamine Hydrochloride]	82 to 85 °C	126 ± 17 nM	234 ± 27 nM		942 ± 112 nM	11000 nM	
Cl.Nc1nc(NCCNc2ccccc2Cl)nc(NCCc2c[nH]c3ccccc23)n1 [Compound 7, N^2-(2-(1H-Indol-3-yl)ethyl)-N^4-(2-((2-Chlorophenyl)amino)ethyl)-1,3,5-Triazine-2,4,6-Triamine Hydrochloride]	105 to 108 °C	423 ± 37 nM	892 ± 144 nM	moderately active	2120 ± 352 nM	30800 nM	4290 ± 1030 nM
Cl.Nc1nc(NCCNc2cccc(Cl)c2)nc(NCCc2c[nH]c3ccccc23)n1 [Compound 8, N^2-(2-(1H-Indol-3-yl)ethyl)-N^4-(2-((3-Chlorophenyl)amino)ethyl)-1,3,5-Triazine-2,4,6-Triamine Hydrochloride]	77 to 82 °C	131 ± 16 nM	4020 ± 719 nM	moderately active	1800 ± 264 nM	15600 nM	1240 ± 257 nM
Cl.Nc1nc(NCCNc2ccc(Cl)cc2)nc(NCCc2c[nH]c3ccccc23)n1 [Compound 9, N^2-(2-(1H-Indol-3-yl)ethyl)-N^4-(2-((4-Chlorophenyl)amino)ethyl)-1,3,5-Triazine-2,4,6-Triamine Hydrochloride]	97 to 100 °C	19 ± 4 nM	641 ± 84 nM	active	2700 ± 581 nM	16200 nM	
Cl.Nc1nc(NCCNc2ccccc2F)nc(NCCc2c[nH]c3ccccc23)n1 [Compound 10, N^2-(2-(1H-Indol-3-yl)ethyl)-N^4-(2-((2-Fluorophenyl)amino)ethyl)-1,3,5-Triazine-2,4,6-Triamine Hydrochloride]	94 to 97 °C	132 ± 9 nM	982 ± 115 nM	moderately active	1510 ± 362 nM	36500 nM	20400 nM
Cl.Nc1nc(NCCNc2cccc(F)c2)nc(NCCc2c[nH]c3ccccc23)n1 [Compound 11, N^2-(2-(1H-Indol-3-yl)ethyl)-N^4-(2-((3-Fluorophenyl)amino)ethyl)-1,3,5-Triazine-2,4,6-Triamine Hydrochloride]	74 to 79 °C	24 ± 5 nM	979 ± 237 nM	active	1280 ± 168 nM	34600 nM	13800 nM
Cl.Nc1nc(NCCc2c[nH]c3ccccc23)nc(Nc2cccc(Cl)c2)n1 [Compound 20, N^2-(2-(1H-Indol-3-yl)ethyl)-N^4-(3-Chlorophenyl)-1,3,5-Triazine-2,4,6-Triamine Hydrochloride]	174 to 178 °C	1950 ± 261 nM	2230 ± 528 nM	inactive	2690 ± 549 nM	14100 nM	2270 ± 153 nM
Cl.Nc1nc(NCCc2c[nH]c3ccccc23)nc(Nc2ccc(F)cc2)n1 [Compound 21, N^2-(2-(1H-Indol-3-yl)ethyl)-N^4-(4-Fluorophenyl)-1,3,5-Triazine-2,4,6-Triamine Hydrochloride]	232 to 235 °C	2050 ± 419 nM	1770 ± 243 nM	inactive	884 ± 73 nM		7030 ± 439 nM
COc1ccc(Nc2nc(N)nc(NCCc3c[nH]c4ccccc34)n2)cc1.Cl [Compound 22, N^2-(2-(1H-Indol-3-yl)ethyl)-N^4-(4-Methoxyphenyl)-1,3,5-Triazine-2,4,6-Triamine Hydrochloride]	194 to 196 °C	727 ± 107 nM	3740 ± 539 nM	weakly active	3110 ± 438 nM	79800 nM	

The next lines start with results.

melting point	Ki (5-HT7 receptor)	Ki (5-HT6 receptor)	SMILES	activity with respect to 5-HT7R (in words) (5-HT7 receptor)	Ki (5-HT2A receptor)	Ki (5-HT1A receptor)	Ki (D2 receptor)
106 to 108 °C	481 ± 23 nM	702 ± 48 nM	Cl.Nc1nc(NCCc2ccccc2)nc(NCCc2c[nH]c3ccc(Cl)cc23)n1 [Compound 4, N^2-(2-(5-Chloro-1H-Indol-3-yl)ethyl)-N^4-Phenethyl-1,3,5-Triazine-2,4,6-Triamine Hydrochloride]		559 ± 41 nM	3910 ± 581 nM	14500 nM
111 to 115 °C	629 ± 148 nM	509 ± 33 nM	COc1ccc2[nH]cc(CCNc3nc(N)nc(NCCc4ccccc4)n3)c2c1.Cl [Compound 5, N^2-(2-(5-Methoxy-1H-Indol-3-yl)ethyl)-N^4-Phenethyl-1,3,5-Triazine-2,4,6-Triamine Hydrochloride]		883 ± 108 nM	3130 ± 758 nM	
118 to 121 °C	100 ± 15 nM	714 ± 112 nM	Cc1ccc2[nH]cc(CCNc3nc(N)nc(NCCc4ccccc4)n3)c2c1.Cl [Compound 6, N^2-(2-(5-Methyl-1H-Indol-3-yl)ethyl)-N^4-Phenethyl-1,3,5-Triazine-2,4,6-Triamine Hydrochloride]		835 ± 168 nM	16600 nM	
140 to 143 °C	1040 ± 81 nM	2790 ± 342 nM	COc1cccc(NCCNc2nc(N)nc(NCCc3c[nH]c4ccccc34)n2)c1.Cl [Compound 14, N^2-(2-(1H-Indol-3-yl)ethyl)-N^4-(2-((3-Methoxyphenyl)amino)ethyl)-1,3,5-Triazine-2,4,6-Triamine Hydrochloride]		2450 ± 273 nM		36000 nM
150 to 153 °C	756 ± 107 nM		COc1ccc(NCCNc2nc(N)nc(NCCc3c[nH]c4ccccc34)n2)cc1.Cl [Compound 15, N^2-(2-(1H-Indol-3-yl)ethyl)-N^4-(2-((4-Methoxyphenyl)amino)ethyl)-1,3,5-Triazine-2,4,6-Triamine Hydrochloride]				
136 to 138 °C	> 1000 nM and 21600 nM	8760 ± 1760 nM	Cl.Nc1nc(NCCc2c[nH]c3ccccc23)nc(NCCN2C(=O)c3ccccc3C2=O)n1 [Compound 16, 2-(2-((4-((2-(1H-Indol-3-yl)ethyl)amino)-6-Amino-1,3,5-Triazin-2-yl)amino)ethyl)isoindoline-1,3-Dione Hydrochloride]		22400 nM		13300 nM
195 to 200 °C	227 ± 37 nM	2630 ± 427 nM	Cl.Nc1nc(NCCc2c[nH]c3ccccc23)nc(NCCn2cnc3ccccc32)n1 [Compound 17, N^2-(2-(1H-Benzo[d]imidazol-1-yl)ethyl)-N^4-(2-(1H-Indol-3-yl)ethyl)-1,3,5-Triazine-2,4,6-Triamine Hydrochloride]		11100 nM	63000 nM	
190 to 194 °C	> 1000 nM and 4130 nM	1960 ± 269 nM	Cc1nc2ccccc2n1CCNc1nc(N)nc(NCCc2c[nH]c3ccccc23)n1.Cl [Compound 18, N^2-(2-(1H-indol-3-yl)ethyl)-N^4-(2-(2-methyl-1H-benzo[d]imidazol-1-yl)ethyl)-1,3,5-triazine-2,4,6-triamine hydrochloride]		9350 ± 831 nM		
108 to 110 °C	> 1000 nM and 3460 nM	825 ± 72 nM	Cl.Nc1nc(NCCc2c[nH]c3ccccc23)nc(NCCn2c(C(F)(F)F)nc3ccccc32)n1 [Compound 19, N^2-(2-(1H-Indol-3-yl)ethyl)-N^4-(2-(2-(Trifluoromethyl)-1H-Benzo[d]imidazol-1-yl)ethyl)-1,3,5-Triazine-2,4,6-Triamine Hydrochloride]		4030 ± 537 nM	76200 nM	

Reference: publication PMC9656787, “Design, Synthesis and Biological Evaluation of Novel 1,3,5-Triazines: Effect of Aromatic Ring Decoration on Affinity to 5-HT7 Receptor” (International Journal of Molecular Sciences, 2022)
